The nature of data set [1]: Molar extinction coefficients. Format: physicochemical.
Data set [2] concerns dsDNA. The experiment in a line: Fluorescence titrations (affinity towards dsDNA). Conditions: for RFU for slits 5/5: value given in Slits column for slits 5/5 nm instead of 10/10; for RFU + DNA: with DNA; for RFU − DNA: without DNA; for Kd: affinity towards dsDNA. Format: binding. As for the experimental part: The affinity of the TramTO derivatives towards dsDNA is usually higher than the affinity of the derivatives without the modified side chain according to this invention. […] KD values are determined as is well known to any person being of ordinary skill in the art.

The test system of data set [3] is live and dead bacteria (E. Coli). The experiment in a line: Flow cytometry of live versus dead cells labelled with 6-TramTO-1. Format: cell-based. Conditions: 5 μM dye for 5 min. The method, then:
The flow cytometric measurements are performed by use of the LSR Fortessa cell analyser (BD Biosciences, USA) or other commercially available apparatuses (e.g. FACSAria III (BD Biosciences, USA) and Guava easyCyte (Merck Millipore, USA)). […] A minimum of 10000 events per sample is analysed. The measurements are each performed in at least two independent experiments. Bacteria are labelled for 15 min with 5 μM of the corresponding dyes. […] For 6-TramTO-1 (1) one can see clear labelling when 5 μM of the dye are added for only 5 min before the measurements, dead cells (treated with 70% isopropanol for 1 h, then washed with saline 3×) being labelled about 10× stronger: MFI 135 vs 1337. FIGS. 5A-5C show additional data. […] FIG. 5B: The graphs of FIG. 5B show flow cytometric data of mixtures of dead and live E. Coli treated with left graph: PI (20 μM) and right graph: 6-TramTO-1 (1, 5 μM) for 5 min showing that the TramTO and PI give the same results. • The parameter settings regarding excitation/emission (as far as they are applied) are equivalent to those described within the legend of FIG. 5A.
For orientation: A flow cytometer gives signals particle by particle.

Data set [4] deals with dsDNA. Conditions: affinity towards dsDNA; read-out: KD (literature value); cited from earlier work.
The next data set relates to HeLa cells. The experiment in a line: Viability of HeLa cells, resazurin fluorescence-based cell viability assay. Conditions: dye concentration of 10 μM. On the technique in general: Alamar Blue is a resazurin reagent that responds to reducing activity.
For data set [5] the following is noted: solvent DMSO; cited from earlier work.

The structures appear in SMILES notation. Like-named read-outs stand apart in the source and are kept apart here.

Here are results for five compounds from patent US20230096750A1, “Cyanine dyes and their usage for in vivo staining of microorganisms and other living cells” (Philipps-Universität Marburg, priority 2021, published 2023).

As a reminder, the Kd is the constant that tells how readily two partners part at equilibrium.

The compound `CN(C)c1ccc(/C=C/c2sc3ccccc3[n+]2CCCCCCn2cc(CN)nn2)cc1` [6-TramTAS (2), (E)-3-(6-(4-(aminomethyl)-1H-1,2,3-triazol-1-yl)hexyl)-2-(4-(dimethylamino)styryl)benzo[d]thiazol-3-ium] yielded a Molar extinction coefficient in data set [1] (solvent MeCN) of 70463 M⁻¹ cm⁻¹. In addition, in the data set on dsDNA [2], the “RFU for slits 5/5” value is reported as roughly 8 RFU). Moreover, in the data set on dsDNA [2] (slits 10/10 nm), the “RFU + DNA” value worked out at 90 RFU and the “RFU − DNA” value is on record as 2.9 RFU.

Take `CC[n+]1ccc(/C=C2\Sc3ccccc3N2CCCCCCn2cc(CN)nn2)c2ccccc21` [6-TramTO-1 (1), (Z)-4-((3-(6-(4-(ammoniomethyl)-1H-1,2,3-triazol-1-yl)hexyl)benzo[d]thiazol-2(3H)-ylidene)methyl)-1-ethylquinolin-1-ium]: the Molar extinction coefficient in data set [1] (solvent H2O) stood at 61813 M⁻¹ cm⁻¹. On dsDNA [2], this compound came in with a Kd of 8.63 ± 4.34 µM. In addition, the “affinity towards dsDNA, superior to 6-TramTAS” value in the data set with dsDNA [2] (ratio versus 6-TramTAS) is reported as roughly 3 ×. Also, the “affinity towards dsDNA, superior to 6-TramTO-3” value in the data set with dsDNA [2] (ratio versus 6-TramTO-3) was roughly 2 ×. Also, in the data set on dsDNA [2] (slits 5/5 nm), the “RFU + DNA” value was 460 RFU and the “RFU − DNA” value amounted to 1.2 RFU. Further, the “labelling of dead cells stronger than live cells” value in data set [3] is “about 10 ×”. Further, in data set [3] (dead cells (70% isopropanol for 1 h)), the MFI was 1337. In addition, in data set [3] (live cells), the MFI is given as 135.

Turning to `CC[n+]1ccc(/C=C/C=C2\Sc3ccccc3N2CCCCCCn2cc(CN)nn2)c2ccccc21.[I-]` [6-TramTO-3 (3)], on dsDNA [4], the Kd was 19.5 ± 2.6 µM. In data set [1] (solvent H2O), this compound returned a Molar extinction coefficient of 59403 M⁻¹ cm⁻¹. For the same compound, the “viability of HeLa cells compared to reference” value with HeLa cells is on record as “about 97%”. Binding on dsDNA [2] was put at a Kd of 23 ± 1.81 µM. In the data set with dsDNA [2] (slits 5/5 nm), the “RFU + DNA” value came to 280 RFU and the “RFU − DNA” value was 11.8 RFU.

As to `CC[n+]1ccc(/C=C2\Sc3ccccc3N2C)c2ccccc21` [CH3TO-1 (4), (Z)-1-ethyl-4-((3-methylbenzo[d]thiazol-2(3H)-ylidene)methyl)quinolin-1-ium, reference compound], on dsDNA [2], the Kd came to 20.6 ± 6.67 µM and the “RFU for slits 5/5” value is roughly 10 RFU). Also, in the data set with dsDNA [2] (slits 10/10 nm), the “RFU + DNA” value amounted to 125 RFU and the “RFU − DNA” value came out at 0.2 RFU. In addition, the “Molar extinction coefficient (lit.)” value in data set [5] is “lit. 63000 M^−1cm^−1”.

As to `CC[n+]1ccc(/C=C2\Sc3ccccc3N2C)c2ccccc21` [CH3TO-3 (6), (Z)-1-ethyl-4-((3-methylbenzo[d]thiazol-2(3H)-ylidene)methyl)quinolin-1-ium, reference compound], the Molar extinction coefficient in data set [1] (solvent DMSO) came out at 37153 M⁻¹ cm⁻¹. Moreover, the Kd on dsDNA [2] is 45 ± 1.05 µM. In the data set with dsDNA [2] (slits 5/5 nm), the “RFU + DNA” value stood at 210 RFU and the “RFU − DNA” value is reported as 6.8 RFU.
